Source: the supplement of paper PMC11061612

Experiments:
[1] = compound: C1CC(C1)(C(=O)[O-])C(=O)[O-].N.N.[Pt+2] [Carboplatin]; details: max 10 µM
How it was run: (§1)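 In 1536-well plates, cancer cell lines in 7.5 μl DMEM/F12 or RPMI with 10% FBS spent 24 hours at 37°C and 5% CO2 and were then dosed for 72 hours with final DMSO typically 0.2%. Viability was read by CellTiter-Glo 2.0 luminescence and scaled between blank-well and DMSO-well means. The single-agent IC50 was fitted from dose responses using a logistic curve in a non-linear mixed effects model, and that logistic curve had two parameters.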

[2] = compound: C1CN(CCC1(C(=O)N[C@@H](CCO)C2=CC=C(C=C2)Cl)N)C3=NC=NC4=C3C=CN4 [AZD5363]; details: max 10 µM
How it was run: as §1

[3] = compound: C=CCn1c(=O)c2cnc(Nc3ccc(N4CCN(C)CC4)cc3)nc2n1-c1cccc(C(C)(C)O)n1 [AZD1775]; details: max 3 µM
How it was run: as §1

[4] = compound: CC(=O)Nc1cccc(-n2c(=O)n(C3CC3)c(=O)c3c(Nc4ccc(I)cc4F)n(C)c(=O)c(C)c32)c1 [Trametinib]; details: max 1 µM
How it was run: as §1

[5] = compound: CC(=O)O[C@H]1C(=O)[C@@]2(C)[C@H]([C@H](OC(=O)c3ccccc3)[C@]3(O)C[C@H](OC(=O)[C@H](O)[C@@H](NC(=O)c4ccccc4)c4ccccc4)C(C)=C1C3(C)C)[C@]1(OC(C)=O)CO[C@@H]1C[C@@H]2O [Paclitaxel]; details: max 3 µM
How it was run: as §1

[6] = compound: CC(=O)c1c(C)c2cnc(Nc3ccc(N4CCNCC4)cn3)nc2n(C2CCCC2)c1=O [Palbociclib]; details: max 10 µM
How it was run: as §1

[7] = compound: CC(C)n1c(=O)n(C)c2cnc3cc(F)c(-c4ccc(OCCCN5CCCCC5)nc4)cc3c21 [AZD1390]; details: max 0.3 µM
How it was run: as §1

[8] = compound: CC1(C)CCC(CN2CCN(c3ccc(C(=O)NS(=O)(=O)c4ccc(NCC5CCOCC5)c([N+](=O)[O-])c4)c(Oc4cnc5[nH]ccc5c4)c3)CC2)=C(c2ccc(Cl)cc2)C1 [Venetoclax]; details: max 1 µM
How it was run: as §1

[9] = compound: CC1=C(C(=CC=C1)Cl)NC(=O)C2=CN=C(S2)NC3=CC(=NC(=N3)C)N4CCN(CC4)CCO [Dasatinib]; details: max 2 µM
How it was run: as §1

[10] = compound: CC1=CN2[C@@H](C1)C=NC3=CC(=C(C=C3C2=O)OC)OCCCCCOC4=C(C=C5C(=C4)N=C[C@@H]6CC(=CN6C5=O)C)OC [SG3199]; details: max 0.001 µM
How it was run: as §1

[11] = compound: CCN(CCO)CCCOc1ccc2c(Nc3cc(CC(=O)Nc4cccc(F)c4)[nH]n3)ncnc2c1 [AZD2811]; details: max 1 µM
How it was run: as §1

[12] = compound: CCc1c2c(nc3ccc(O)cc13)-c1cc3c(c(=O)n1C2)COC(=O)[C@]3(O)CC [SN-38]; details: max 0.3 µM
How it was run: as §1

[13] = compound: CN(C)CCCOc1ccc(-c2ccc3ncc4c(c3c2)n(C2CCOCC2)c(=O)n4C)cn1 [AZD0156]; details: max 3 µM
How it was run: as §1

[14] = compound: CN(CC[C@H](CSC1=CC=CC=C1)NC2=C(C=C(C=C2)S(=O)(=O)NC(=O)C3=CC=C(C=C3)N4CCC(CC4)[C@H](C5=CC=CC=C5C6=CC=C(C=C6)Cl)O)S(=O)(=O)C(F)(F)F)CCO [AZD4320]; details: max 1 µM
How it was run: as §1

[15] = compound: COc1cc(Nc2ncc3c(n2)-c2ccc(Cl)cc2C(c2c(F)cccc2OC)=NC3)ccc1C(=O)O [Alisertib]; details: max 10 µM
How it was run: as §1

[16] = compound: COc1cc([C@@H]2c3cc4c(cc3[C@@H](O[C@@H]3O[C@@H]5CO[C@@H](C)O[C@H]5[C@H](O)[C@H]3O)[C@H]3COC(=O)[C@H]23)OCO4)cc(OC)c1O [Etoposide]; details: max 10 µM
How it was run: as §1

[17] = compound: COc1cc2ncnc(Nc3ccc(F)c(Cl)c3)c2cc1OCCCN1CCOCC1 [Gefitinib]; details: max 10 µM
How it was run: as §1

[18] = compound: COc1cccc(OCCCN)c1-c1cc(Nc2cnc(C#N)cn2)n[nH]1 [Prexasertib]; details: max 1 µM
How it was run: as §1

[19] = compound: COc1cccc2c1C(=O)c1c(O)c3c(c(O)c1C2=O)C[C@@](O)(C(=O)CO)C[C@@H]3O[C@H]1C[C@H](N)[C@H](O)[C@H](C)O1 [Doxorubicin]; details: max 1 µM
How it was run: as §1

[20] = compound: COc1nnc2ccc(N3CCC(c4ccc(OCCN5CCN(C)C(=O)[C@H]5C)cc4)CC3)nn12 [AZD5153]; details: max 1 µM
How it was run: as §1

[21] = compound: CS(=O)(=O)CCNCc1ccc(-c2ccc3ncnc(Nc4ccc(OCc5cccc(F)c5)c(Cl)c4)c3c2)o1 [Lapatinib]; details: max 10 µM
How it was run: as §1

[22] = compound: C[C@@H](Nc1cc(F)cc(F)c1)c1cc(C(=O)N(C)C)cc2c(=O)cc(N3CCOCC3)oc12 [AZD8186]; details: max 10 µM
How it was run: as §1

[23] = compound: C[C@@H](Oc1cc(-c2cnn(C3CCNCC3)c2)cnc1N)c1c(Cl)ccc(F)c1Cl [Crizotinib]; details: max 10 µM
How it was run: as §1

[24] = compound: C[C@@H](c1ccc2nccn2c1)n1nnc2ncc(-c3cnn(C)c3)nc21 [Savolitinib]; details: max 1 µM
How it was run: as §1

[25] = compound: C[C@@H]1COCCN1C2=NC(=NC(=C2)C3(CC3)[S@](=N)(=O)C)C4=C5C=CNC5=NC=C4 [AZD6738]; details: max 10 µM
How it was run: as §1

[26] = compound: Cc1c2c(nn1C)CSCc1cc(n(C)n1)CSc1cc(c3ccccc3c1)OCCCc1c(C(=O)O)n(C)c3c-2c(Cl)ccc13 [AZD5991]; details: max 1 µM
How it was run: as §1

[27] = compound: Cc1cc2ncnn2cc1Nc1ncc2c(n1)n(C1CCOCC1)c(=O)n2C [AZD7648]; details: max 10 µM
How it was run: as §1

[28] = compound: Cc1nc(-c2cn3c(n2)-c2ccc(-c4cnn(C(C)(C)C(N)=O)c4)cc2OCC3)n(C(C)C)n1 [Taselisib]; details: max 10 µM
How it was run: as §1

[29] = compound: Cn1cnc2c(F)c(Nc3ccc(Br)cc3Cl)c(C(=O)NOCCO)cc21 [Selumetinib]; details: max 10 µM
How it was run: as §1

[30] = compound: N#Cc1cnc(Nc2cc(NC[C@H]3CNCCO3)c(C(F)(F)F)cn2)cn1 [SRA737]; details: max 10 µM
How it was run: as §1

[31] = compound: NC1(c2ccc(-c3nc4ccn5c(=O)[nH]nc5c4cc3-c3ccccc3)cc2)CCC1 [MK-2206]; details: max 10 µM
How it was run: as §1

[32] = compound: Nc1ccn([C@@H]2O[C@H](CO)[C@@H](O)C2(F)F)c(=O)n1 [Gemcitabine]; details: max 0.3 µM
How it was run: as §1

[33] = compound: O=C(Nc1ccc2[nH]nc(-c3ccncc3)c2c1)[C@@H]1CCN(CC(=O)N2CCN(c3ccc(-c4ncccn4)cc3)CC2)C1; details: max 5 µM
How it was run: as §1

[34] = compound: O=C(c1cc(Cc2n[nH]c(=O)c3ccccc23)ccc1F)N1CCN(C(=O)C2CC2)CC1 [Olaparib]; details: max 10 µM
How it was run: as §1

[35] = compound: O=c1[nH]cc(F)c(=O)[nH]1 [5-Fluorouracil]; details: max 20 µM
How it was run: as §1

Cell Line	IC50, cell viability 72 h [1] [nM]	IC50, cell viability 72 h [2] [nM]	IC50, cell viability 72 h [3] [nM]	IC50, cell viability 72 h [4] [nM]	IC50, cell viability 72 h [5] [nM]	IC50, cell viability 72 h [6] [nM]	IC50, cell viability 72 h [7] [nM]	IC50, cell viability 72 h [8] [nM]	IC50, cell viability 72 h [9] [nM]	IC50, cell viability 72 h [10] [nM]	IC50, cell viability 72 h [11] [nM]	IC50, cell viability 72 h [12] [nM]	IC50, cell viability 72 h [13] [nM]	IC50, cell viability 72 h [14] [nM]	IC50, cell viability 72 h [15] [nM]	IC50, cell viability 72 h [16] [nM]	IC50, cell viability 72 h [17] [nM]	IC50, cell viability 72 h [18] [nM]	IC50, cell viability 72 h [19] [nM]	IC50, cell viability 72 h [20] [nM]	IC50, cell viability 72 h [21] [nM]	IC50, cell viability 72 h [22] [nM]	IC50, cell viability 72 h [23] [nM]	IC50, cell viability 72 h [24] [nM]	IC50, cell viability 72 h [25] [nM]	IC50, cell viability 72 h [26] [nM]	IC50, cell viability 72 h [27] [nM]	IC50, cell viability 72 h [28] [nM]	IC50, cell viability 72 h [29] [nM]	IC50, cell viability 72 h [30] [nM]	IC50, cell viability 72 h [31] [nM]	IC50, cell viability 72 h [32] [nM]	IC50, cell viability 72 h [33] [nM]	IC50, cell viability 72 h [34] [nM]	IC50, cell viability 72 h [35] [nM]
HSC-39 (Gastric Carcinoma)	> 10000	> 10000	398	423	4.55	4370	> 300	561	> 2000	> 1	150	7.39	> 3000	> 1000	< 10	1230	> 10000	4.86	160	322	5620	> 10000	2060	> 1000	538	55.6	> 10000	791	> 10000	519	> 10000	11.7	2880	> 10000	16600
IST-MES1 (Mesothelioma)	> 10000	> 10000	> 3000	> 1000	504	> 10000	> 300	> 1000	243	> 1	> 1000	61.4	> 3000	> 1000	> 10000	> 10000	> 10000	> 1000	430	246	> 10000	> 10000	> 10000	> 1000	> 10000	> 1000	> 10000	> 10000	> 10000	> 10000	> 10000	181	> 5000	> 10000	> 20000
